Key:
[1] = n-octanol/water; cited from earlier work
[2] = flash point; cited from earlier work
[3] = neat substance; BuAc (reference) = 1.00; cited from earlier work
[4] = Evaporation of fluid volume over time (FIG. 2); type: physicochemical; settings: 70% (v/v) in water
Text: Line C represents the change in fluid volume of a 20% (v/v) solution of diacetone alcohol in water caused by evaporation (a particular embodiment of the inventive differential evaporation antimicrobial composition), while line D represents the change in fluid phase concentration of the same 20% (v/v) diacetone alcohol in water occurring during the same fluid volume change. In this case, complete evaporation can occur in approximately 75 time units. Comparatively, the 20% (v/v) diacetone alcohol in water can be engaged with a population of microorganisms for a greater duration of time than the conventional antimicrobial composition without reapplication of an additional amount because evaporation occurs at a slower rate as shown by Table 3.
By comparison, Line C represents the change in fluid volume of a 20% (v/v) solution of diacetone alcohol in water, while line D represents the change in concentration of diacetone alcohol in water. As to this non-limiting example, if 10% diacetone alcohol (v/v) is the minimum concentration to provide an antimicrobial composition, then the entire 75 time units provide an antimicrobial composition because the concentration of diacetone alcohol increases over the 75 time units in accordance with embodiments of differential evaporation potentiated antimicrobial compositions.

[5] = system: Staphylococcus aureus (ATCC 6538), Pseudomonas aeruginosa (ATCC 9027), Salmonella Choleraesuis (ATCC 13312); experiment: Coverslip assay: composition applied to dried bacteria on glass coverslips, evaporated to dryness, nutrient agar contact; type: cell-based
Method: These bacteria cultures can be diluted to obtain concentrations of about 10^7 through about 10^3 CFU/ml and 10 μl of each dilution can be spread onto a glass coverslip with a sterile loop and allowed to dry. Afterwards, the coverslips containing 10^5 to 10^2 CFU can be placed inside of petri dish. Different concentrations of the amount of substance can be applied to the cover slips with a nebulizer as described by Germicidal Spray Products as Disinfectants, Method 961.02, AOAC International (2004). As a non-limiting example, isopropyl alcohol (IPA) and diacetone alcohol (DAA) can be assessed as above described by obtaining aqueous mixtures of IPA at concentrations of 55% w/w, 20% w/w, and 5% w/w. […] A nutrient agar lightly pressed against the coverslips allows contact of microorganisms on the coverslips with the nutrient agar. The nutrient agar can be incubated for 48 hours at 37° C. in contact with the coverslips and then observed for microbial reproduction in the region where the coverslips contact the nutrient agar. Untreated coverslips can be used as a positive control. Particular examples of utilizing the method are set forth below.

[6] = system: Staphylococcus aureus (ATCC 6538); experiment: Potentiation Assay (non-evaporative vs evaporative procedure); type: cell-based; settings: for Evaporated Log 10 Reduction: evaporated in centrifuge 60 minutes; for Non-evaporated Log 10 Reduction: set 60 minutes
Method: Now referring primarily to Table 5 and FIG. […] The non-evaporative and evaporative procedures included 50 μL of an overnight Staphylococcus aureus (ATCC 6538, ˜10^9 CFU/mL) culture added to each 2 mL sterile plastic vial with a conical bottom and dried without capping in a centrifuge for 30 minutes. One hundred microliters of the solution being tested was added to each vial (as triplicate vials) either let set for 60 minutes (non-evaporative) or evaporated in a centrifuge for 60 minutes (evaporative), with time to evaporate being determined by each DAA mixtures own evaporative characteristic. To the non-evaporated vials, 400 μL Mueller Hinton Broth (MHB) was added to the vial and 100 μL was plated onto Nutrient agar (NA). To the evaporated vials, 500 μL of MHB was added and 100 μL was plated onto NA. Plates were incubated overnight at ˜37° C. and counted (the “Potentiation Assay”).

[7] = Table 1; cited from earlier work
[8] = 70% v/v active component, 30% water
[9] = 10% v/v active component, 90% water
[10] = 20% v/v active component, 80% water

Row | Compound | Log P [1] | FP [2] | Relative Evaporation Rates [3] | complete evaporation [4] | Evaporated from coverslip ([5]; 6% v/v active component, 94% water) | Evaporated from coverslip ([5]; 25% v/v active component, 75% water) | Evaporated from coverslip [5, 8] | reduction of the population of viable microorganisms ([5]; concentrations of 6% and 25% in water) | Evaporated Log 10 Reduction [6, 9] | Non-evaporated Log 10 Reduction [6, 9] | Evaporated Log 10 Reduction [6, 10] | Non-evaporated Log 10 Reduction [6, 10] | Evaporated Log 10 Reduction [6, 8] | Non-evaporated Log 10 Reduction [6, 8] | evaporative potentiation of antimicrobial efficacy ([6]; evaporative vs non-evaporative procedure, concentrations tested in water) | Azeotrope with Water % v/v [7] | Azeotrope with Water % w/w [7]
1 | CC(C)=O [Acetone, reference compound] | −0.23 | −18 °C | 11.60 |  |  |  |  |  |  |  |  |  |  |  |  |  | 
2 | CC(C)O [Isopropanol, 2-propanol, reference compound] |  | 21 °C |  | about 15 time units | ---o--- | ---o--- | X (denotes a plate where the number of colonies represented less than 50% of the number of colonies counted in the corresponding positive control plate, representing reduction of the number of microorganisms (<2 Log10 reduction).) | did not reduce the population of viable microorganisms | ---0--- (denotes a plate where the numbers of colonies represented more than 50% of the number of colonies counted in the corresponding positive control plate, representing no significant reduction in the population of viable microorganisms (0 to 1 Log10 reduction).) | ---0--- (denotes a plate where the numbers of colonies represented more than 50% of the number of colonies counted in the corresponding positive control plate, representing no significant reduction in the population of viable microorganisms (0 to 1 Log10 reduction).) | ---0--- (denotes a plate where the numbers of colonies represented more than 50% of the number of colonies counted in the corresponding positive control plate, representing no significant reduction in the population of viable microorganisms (0 to 1 Log10 reduction).) | XXX (denotes a plate in which zero colonies were present, representing complete reduction of the number of microorganisms (>5 Log10 reduction).) | XXX (denotes a plate in which zero colonies were present, representing complete reduction of the number of microorganisms (>5 Log10 reduction).) | XXX (denotes a plate in which zero colonies were present, representing complete reduction of the number of microorganisms (>5 Log10 reduction).) | cannot be potentiated | 83% v/v | 87% w/w

Source: patent US9474814B2, “Differential evaporation potentiated disinfectant system” (XY, LLC, priority 2007, dated 2016)
